The source made the active and inactive calls.
What was measured:
[1] = molecular target: T1, RNA-binding protein pos-1 (Caenorhabditis elegans, UniProt G5EF15); assay: inhibitors of POS-1/mex-3 RNA binding, dose response, biochemical, fluorescence polarization (AID 1964);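 note: purified POS-1 fused to maltose binding protein made in E. coli; potency of compounds blocking POS-1 binding to fluorescent RNA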
T1 sequence (G5EF15 whole entry): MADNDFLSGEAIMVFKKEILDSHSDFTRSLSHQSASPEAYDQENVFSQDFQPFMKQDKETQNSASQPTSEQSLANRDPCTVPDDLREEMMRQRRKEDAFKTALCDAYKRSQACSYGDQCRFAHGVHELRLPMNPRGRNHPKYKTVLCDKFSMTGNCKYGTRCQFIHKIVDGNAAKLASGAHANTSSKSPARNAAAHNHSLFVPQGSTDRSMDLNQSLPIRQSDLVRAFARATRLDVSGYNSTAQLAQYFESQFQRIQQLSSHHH

[2] = molecular target: Glyceraldehyde-3-phosphate dehydrogenase (Homo sapiens, UniProt P04406)
[3] = molecular target: T2, Zinc finger protein mex-5 (Caenorhabditis elegans, UniProt Q9XUB2); assay: MEX-5/TCR-2 RNA interaction inhibitors, dose response, biochemical, C. elegans, fluorescence polarization (AID 1960)
T2 sequence (Q9XUB2 whole entry): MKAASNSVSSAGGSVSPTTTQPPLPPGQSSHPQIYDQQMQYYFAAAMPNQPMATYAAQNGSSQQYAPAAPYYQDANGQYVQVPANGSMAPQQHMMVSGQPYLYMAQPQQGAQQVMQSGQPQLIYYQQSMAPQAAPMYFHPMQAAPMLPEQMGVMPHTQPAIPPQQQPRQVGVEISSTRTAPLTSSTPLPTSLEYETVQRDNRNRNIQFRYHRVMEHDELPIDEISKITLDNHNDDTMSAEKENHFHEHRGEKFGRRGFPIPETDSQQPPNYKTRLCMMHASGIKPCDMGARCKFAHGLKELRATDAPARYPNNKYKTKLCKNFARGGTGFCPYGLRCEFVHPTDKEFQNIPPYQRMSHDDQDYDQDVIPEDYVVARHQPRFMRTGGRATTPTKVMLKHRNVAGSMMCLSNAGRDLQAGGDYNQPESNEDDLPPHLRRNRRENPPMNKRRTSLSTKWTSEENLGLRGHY

[4] = molecular target: Heat shock cognate 71 kDa protein (Homo sapiens, UniProt P11142); assay: In Vitro Hsc70 Dose Response Fluorescence Polarization Assay. [Related pubchem assays: 1072 ]
[5] = molecular target: Heat shock 70 kDa protein 1A (Homo sapiens, UniProt P0DMV8); assay: Hsp70 inhibitors, SAR follow-up, biochemical, fluorescence polarization (AID 1072)
[6] = molecular target: Potassium voltage-gated channel subfamily KQT member 2 (Rattus norvegicus, UniProt O88943); assay: Mode of action assay - current amplitude concentration response for derivatives of ZTZ240, a potentiator of KCNQ2 potassium channels. [Related pubchem assays: 2258 (Summary assay for the KCNQ2 potentiators.), 2239 (Primary HTS assay for KCNQ2 potentiators with 305606 compounds tested, and 1644 are found to be active.)]; format: functional
[7] = tested on: Streptococcus sp. 'group A'; assay: growth inhibition of control SK(-) GAS strain, dose response, counter-screen for streptokinase expression inhibitor project, luminescence, kanamycin, BacTiterGlo, confirmation (AID 1900); format: functional, organism-based
Streptococcus [8] = assay: Luminescence Microorganism-Based Dose Response Follow up to Identify Compounds Cytotoxic to Streptococcus. [Related pubchem assays: 1677 (Project Summary), 1915, 1914, 1902 (Retest at Dose), 1900 (Counter Screen), 1662 (Primary HTS)]; format: functional, organism-based
Streptokinase A = molecular target: T3, Streptokinase A (Streptococcus pyogenes serotype M1, UniProt P10520); assay: S. pyogenes streptokinase expression inhibitors, potency, dose response, plasminogen activation absorbance, OD405 (AID 1914); format: functional, Streptococcus pyogenes M1 GAS;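 note: secreted streptokinase activity via plasminogen activation per viability signal from cell pellet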
T3 sequence (P10520 whole entry): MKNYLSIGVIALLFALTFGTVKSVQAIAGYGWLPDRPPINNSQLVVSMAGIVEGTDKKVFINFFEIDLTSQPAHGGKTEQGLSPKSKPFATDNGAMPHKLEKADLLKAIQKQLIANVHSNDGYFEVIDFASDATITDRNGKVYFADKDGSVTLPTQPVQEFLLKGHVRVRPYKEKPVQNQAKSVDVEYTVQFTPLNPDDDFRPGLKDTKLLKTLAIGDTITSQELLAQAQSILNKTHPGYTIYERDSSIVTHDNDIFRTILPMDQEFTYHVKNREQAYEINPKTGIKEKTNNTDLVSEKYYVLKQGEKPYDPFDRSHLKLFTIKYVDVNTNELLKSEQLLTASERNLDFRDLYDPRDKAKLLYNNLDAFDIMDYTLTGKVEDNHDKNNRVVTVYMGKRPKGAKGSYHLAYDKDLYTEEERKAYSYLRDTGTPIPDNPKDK

[9] = growth suppression of PTEN-null colon cells, dose response, cell-based, HCT116 PTEN knockout (AID 1047); format: functional;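 note: HCT116 colon tumor cells with PTEN knocked out; cells exposed to compound for 60 hours before readout; potency for loss of cell viability measured by luminescence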
[10] = growth suppression of beta-catenin-knockout colon cells, dose response, cell-based, HCT116, human colon tumor (AID 1045); format: functional;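 note: HCT116 colon tumor cells with beta catenin knocked out; cells exposed to compound for 60 hours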
Streptococcus [11] = assay: Group A Streptococcus viability loss, dose response, counter-screen for streptokinase expression inhibitor project, luminescence, BacTiterGlo (AID 1915); format: functional, organism-based;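 note: potency for reduction of bacterial viability or growth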
[12] = Luminescence Cell-Based Dose Retest to Confirm Inhibitors of Cancer Stem Cells. [Related pubchem assays (depositor defined):AID2717, AID2721]; format: functional; conditions: Homo sapiens
INS1 = assay: beta cell apoptosis inhibitors, cytokine rescue, dose response, luminescence, retest (AID 449756); format: functional, cell-based; conditions: Rattus norvegicus;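 note: cell death triggered by IL-1 beta plus TNF-alpha plus IFN-gamma mixture; protective hits raise ATP signal compared with cytokine alone wells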
[13] = Counterscreen for IDE inhibitors: Luminescence-based cell-based high throughput dose response assay to identify compounds that are cytotoxic to HEK cells. [Related pubchem assays: 434962 (Primary screen (IDE inhibitors in singlicate)), 449730 (Counterscreen (Cytotoxicity in triplicate)), 435028 (Confirmation (IDE inhibitors in triplicate)) …; format: functional; conditions: HEK293
[14] = molecular target: T4, Voltage-gated N-type calcium channel alpha-1B subunit/Amyloid beta A4 precursor protein-binding family A member 1 (Homo sapiens, UniProt Q00975+Q02410); format: protein assay
[15] = molecular target: T4, Voltage-gated N-type calcium channel alpha-1B subunit/Amyloid beta A4 precursor protein-binding family A member 1; format: protein assay; remark: listed apart in the source
Insulin-degrading enzyme = Insulin-degrading enzyme (Homo sapiens, UniProt P14735); assay: Dose Response: Fluorescence polarization-based cell-based high throughput dose response assay for inhibitors of insulin-degrading enzyme (IDE). [Related pubchem assays: 434962 (Primary screen (IDE inhibitors in singlicate)), 449730 (Counterscreen (Cytotoxicity in triplicate)), 435028 (Confirmation (IDE inhibitors in triplicate)), 434984 (Summary …; format: functional
HeLa = assay: Cytotoxicity counterscreen assay for transcriptional activators of heat shock protein 70 (Hsp70). [Related pubchem assays: 1203, 1252 ]; format: functional; conditions: Homo sapiens;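 note: cells exposed to compound for 16 hours before readout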
BJ [16] = assay: cytotoxicity toward BJ-TERT fibroblasts, dose response, cell-based, RAS-independent, luminescence (AID 1933); format: functional; conditions: Homo sapiens
Galanin receptor type 2 = Galanin receptor type 2 (Homo sapiens, UniProt O43603); assay: Dose Response cell-based high-throughput screening assay to identify antagonists of galanin receptor 2 (GALR2). [Related pubchem assays: 828, 866 ]; format: functional
BJ [17] = assay: cells; format: functional, cell-based; conditions: Homo sapiens
[18] = inhibitors of intracellular T. cruzi replication, confirmation, NIH3T3 host cells, beta-gal luminescence (AID 2044); format: functional, cell-based;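 note: intracellular parasites grown in NIH/3T3 mouse fibroblasts as host cells; luminescent beta-galactosidase reporter signal from transgenic T. cruzi replicating inside host cells; inhibitors lower the luminescence signal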
[19] = microbe, parasite or virus in culture; format: functional; conditions: Mycobacterium tuberculosis
[20] = cytotoxicity toward NIH3T3 fibroblasts, dose response, counter-screen, cell-based, ATP luminescence, mouse fibroblasts (AID 2010); format: functional;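 note: cells exposed to compound for about 90 hours before reading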
BJ [21] = assay: cytotoxicity toward BJ-TERT-LT-ST fibroblasts, dose response, cell-based, RAS-independent, luminescence (AID 1935); format: functional; conditions: Homo sapiens;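 note: BJ fibroblasts immortalized with TERT plus LT and ST oncogenes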
[22] = cytotoxicity toward DRD oncogenic fibroblasts, dose response, cell-based, non-viral oncogenic, luminescence (AID 1934); format: functional; conditions: Homo sapiens
[23] = Shn3 3'UTR reporter inhibitors, dose response, cell-based, Clone20 osteoblasts, firefly luciferase, cherry-picked (AID 624132); format: functional;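 note: firefly luciferase luminescence from reporter carrying the Shn3 3'UTR in osteoblasts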
[24] = HepG2 cell cytotoxicity, dose response, cytotoxicity control for Shn3 inhibitor project, CellTiter-Glo, cherry-picked (AID 624134); format: functional, cell-based
[25] = control 3'UTR Renilla luciferase suppression, dose response, counter-screen for Shn3 inhibitor project, cell-based, Clone20-Shn3RL, cherry-picked (AID 624133); format: functional

T4 sequence (Q00975 whole entry): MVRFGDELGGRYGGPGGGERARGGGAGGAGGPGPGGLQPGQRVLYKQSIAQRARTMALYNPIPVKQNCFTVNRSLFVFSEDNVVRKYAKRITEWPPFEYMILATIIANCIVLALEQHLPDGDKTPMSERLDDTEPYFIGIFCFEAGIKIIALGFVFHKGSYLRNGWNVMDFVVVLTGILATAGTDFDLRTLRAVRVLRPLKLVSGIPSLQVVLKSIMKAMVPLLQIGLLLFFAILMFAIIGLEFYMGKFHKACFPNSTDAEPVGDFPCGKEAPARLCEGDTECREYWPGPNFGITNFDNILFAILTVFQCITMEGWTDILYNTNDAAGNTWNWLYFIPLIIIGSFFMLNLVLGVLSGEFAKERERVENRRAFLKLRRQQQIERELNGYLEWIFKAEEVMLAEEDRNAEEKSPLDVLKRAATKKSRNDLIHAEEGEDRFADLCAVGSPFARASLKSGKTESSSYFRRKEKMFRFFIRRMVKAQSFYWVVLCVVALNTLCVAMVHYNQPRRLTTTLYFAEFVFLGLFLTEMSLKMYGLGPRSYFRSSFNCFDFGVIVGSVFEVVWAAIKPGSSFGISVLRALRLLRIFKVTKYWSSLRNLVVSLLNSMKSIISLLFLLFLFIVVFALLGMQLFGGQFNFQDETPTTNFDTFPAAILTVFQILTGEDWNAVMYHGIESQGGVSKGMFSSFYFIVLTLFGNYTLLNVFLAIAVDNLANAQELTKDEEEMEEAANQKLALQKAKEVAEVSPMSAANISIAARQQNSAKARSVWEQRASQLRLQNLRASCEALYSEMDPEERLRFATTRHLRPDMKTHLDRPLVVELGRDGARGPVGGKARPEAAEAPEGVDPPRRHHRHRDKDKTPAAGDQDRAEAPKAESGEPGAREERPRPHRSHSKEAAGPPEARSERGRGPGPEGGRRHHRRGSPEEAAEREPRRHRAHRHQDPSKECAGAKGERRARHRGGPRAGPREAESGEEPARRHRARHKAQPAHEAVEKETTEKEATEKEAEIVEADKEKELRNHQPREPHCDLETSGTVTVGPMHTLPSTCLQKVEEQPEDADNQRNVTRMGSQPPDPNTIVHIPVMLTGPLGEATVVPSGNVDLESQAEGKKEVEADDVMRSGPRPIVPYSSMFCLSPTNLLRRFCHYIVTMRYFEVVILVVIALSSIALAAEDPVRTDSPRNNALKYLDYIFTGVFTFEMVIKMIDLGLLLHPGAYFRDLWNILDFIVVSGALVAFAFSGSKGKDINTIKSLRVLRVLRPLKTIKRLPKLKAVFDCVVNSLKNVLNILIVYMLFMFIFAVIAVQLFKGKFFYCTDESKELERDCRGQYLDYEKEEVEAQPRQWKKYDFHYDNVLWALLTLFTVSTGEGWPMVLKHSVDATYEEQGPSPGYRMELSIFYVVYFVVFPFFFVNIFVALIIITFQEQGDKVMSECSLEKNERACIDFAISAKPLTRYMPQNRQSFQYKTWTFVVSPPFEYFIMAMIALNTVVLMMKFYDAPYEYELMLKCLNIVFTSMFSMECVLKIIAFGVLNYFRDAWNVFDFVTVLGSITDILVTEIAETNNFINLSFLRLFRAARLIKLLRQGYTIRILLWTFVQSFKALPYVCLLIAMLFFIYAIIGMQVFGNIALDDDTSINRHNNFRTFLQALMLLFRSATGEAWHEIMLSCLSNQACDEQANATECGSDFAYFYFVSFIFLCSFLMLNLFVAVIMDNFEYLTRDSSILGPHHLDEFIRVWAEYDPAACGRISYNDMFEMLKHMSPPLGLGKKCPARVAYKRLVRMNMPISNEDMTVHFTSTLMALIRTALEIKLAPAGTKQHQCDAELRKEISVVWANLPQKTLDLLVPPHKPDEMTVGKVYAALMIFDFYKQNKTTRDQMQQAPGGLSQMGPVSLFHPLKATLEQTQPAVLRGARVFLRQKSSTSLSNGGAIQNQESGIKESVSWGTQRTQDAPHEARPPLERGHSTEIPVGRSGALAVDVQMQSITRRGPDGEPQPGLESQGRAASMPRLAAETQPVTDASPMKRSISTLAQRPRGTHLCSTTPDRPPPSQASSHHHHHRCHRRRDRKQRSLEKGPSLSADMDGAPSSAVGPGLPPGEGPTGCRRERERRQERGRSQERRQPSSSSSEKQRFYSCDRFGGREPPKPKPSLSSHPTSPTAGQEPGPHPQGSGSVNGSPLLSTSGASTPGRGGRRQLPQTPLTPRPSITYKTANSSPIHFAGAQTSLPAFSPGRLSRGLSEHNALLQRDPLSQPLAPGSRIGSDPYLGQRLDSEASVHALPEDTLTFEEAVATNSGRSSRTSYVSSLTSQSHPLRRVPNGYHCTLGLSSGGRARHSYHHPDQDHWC
T4 sequence (Q02410 whole entry): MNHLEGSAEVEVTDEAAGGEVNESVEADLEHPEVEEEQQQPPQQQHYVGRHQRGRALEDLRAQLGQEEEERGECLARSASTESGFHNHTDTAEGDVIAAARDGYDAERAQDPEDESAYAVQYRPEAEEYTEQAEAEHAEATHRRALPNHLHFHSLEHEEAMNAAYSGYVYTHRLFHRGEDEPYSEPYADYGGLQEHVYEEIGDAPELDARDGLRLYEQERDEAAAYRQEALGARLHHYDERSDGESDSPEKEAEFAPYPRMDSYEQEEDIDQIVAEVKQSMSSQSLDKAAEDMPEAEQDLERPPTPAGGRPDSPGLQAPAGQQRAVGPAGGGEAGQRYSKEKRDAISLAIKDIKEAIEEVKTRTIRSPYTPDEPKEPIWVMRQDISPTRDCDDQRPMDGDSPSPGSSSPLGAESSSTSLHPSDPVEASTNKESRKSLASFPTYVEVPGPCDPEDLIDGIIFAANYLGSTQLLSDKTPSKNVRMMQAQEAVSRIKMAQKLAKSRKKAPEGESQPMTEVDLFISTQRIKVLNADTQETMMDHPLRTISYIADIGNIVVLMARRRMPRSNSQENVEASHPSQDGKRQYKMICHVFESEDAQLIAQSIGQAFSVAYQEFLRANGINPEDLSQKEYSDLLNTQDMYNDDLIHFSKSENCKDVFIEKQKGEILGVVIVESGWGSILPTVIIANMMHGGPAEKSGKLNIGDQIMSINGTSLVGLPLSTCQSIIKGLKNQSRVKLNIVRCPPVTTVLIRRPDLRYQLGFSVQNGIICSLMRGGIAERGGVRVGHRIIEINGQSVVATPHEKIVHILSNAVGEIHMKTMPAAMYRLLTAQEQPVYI
Chain of Glyceraldehyde-3-phosphate dehydrogenase (P04406 whole entry): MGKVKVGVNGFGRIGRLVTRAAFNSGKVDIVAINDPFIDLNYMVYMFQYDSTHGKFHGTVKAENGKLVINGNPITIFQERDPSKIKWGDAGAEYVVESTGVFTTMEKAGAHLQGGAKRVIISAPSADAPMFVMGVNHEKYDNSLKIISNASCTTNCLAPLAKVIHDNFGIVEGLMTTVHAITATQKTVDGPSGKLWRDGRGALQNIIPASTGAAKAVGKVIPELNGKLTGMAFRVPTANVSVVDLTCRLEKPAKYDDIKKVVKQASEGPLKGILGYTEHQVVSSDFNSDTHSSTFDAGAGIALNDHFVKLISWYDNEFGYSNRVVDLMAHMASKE
Chain of Insulin-degrading enzyme (P14735 whole entry): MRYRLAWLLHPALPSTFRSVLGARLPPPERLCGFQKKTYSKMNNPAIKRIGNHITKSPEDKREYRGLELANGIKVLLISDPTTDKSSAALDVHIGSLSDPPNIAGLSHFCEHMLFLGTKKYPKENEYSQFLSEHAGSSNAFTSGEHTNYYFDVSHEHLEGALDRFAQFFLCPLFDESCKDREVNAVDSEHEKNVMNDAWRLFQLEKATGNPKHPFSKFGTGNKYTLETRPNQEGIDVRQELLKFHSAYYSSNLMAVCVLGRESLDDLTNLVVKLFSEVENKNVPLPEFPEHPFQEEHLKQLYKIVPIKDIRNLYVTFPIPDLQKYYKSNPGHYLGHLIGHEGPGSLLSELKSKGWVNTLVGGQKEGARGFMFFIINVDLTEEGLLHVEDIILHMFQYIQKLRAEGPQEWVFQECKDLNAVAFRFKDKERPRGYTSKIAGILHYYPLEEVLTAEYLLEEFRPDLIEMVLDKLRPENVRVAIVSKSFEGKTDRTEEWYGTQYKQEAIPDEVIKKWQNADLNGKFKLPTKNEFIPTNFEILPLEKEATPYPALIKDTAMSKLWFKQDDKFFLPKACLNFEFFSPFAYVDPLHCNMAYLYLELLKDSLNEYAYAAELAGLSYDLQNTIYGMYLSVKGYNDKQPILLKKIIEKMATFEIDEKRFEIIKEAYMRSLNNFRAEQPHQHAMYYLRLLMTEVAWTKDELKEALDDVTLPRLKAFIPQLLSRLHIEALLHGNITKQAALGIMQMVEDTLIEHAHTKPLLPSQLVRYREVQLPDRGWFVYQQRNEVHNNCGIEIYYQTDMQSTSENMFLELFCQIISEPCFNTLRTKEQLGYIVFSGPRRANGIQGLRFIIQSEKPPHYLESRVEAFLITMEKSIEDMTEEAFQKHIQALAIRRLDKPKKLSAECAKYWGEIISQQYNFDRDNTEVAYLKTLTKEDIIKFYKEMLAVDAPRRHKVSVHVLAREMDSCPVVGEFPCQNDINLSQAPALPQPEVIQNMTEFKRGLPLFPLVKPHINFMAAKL
Chain of Galanin receptor type 2 (O43603 whole entry): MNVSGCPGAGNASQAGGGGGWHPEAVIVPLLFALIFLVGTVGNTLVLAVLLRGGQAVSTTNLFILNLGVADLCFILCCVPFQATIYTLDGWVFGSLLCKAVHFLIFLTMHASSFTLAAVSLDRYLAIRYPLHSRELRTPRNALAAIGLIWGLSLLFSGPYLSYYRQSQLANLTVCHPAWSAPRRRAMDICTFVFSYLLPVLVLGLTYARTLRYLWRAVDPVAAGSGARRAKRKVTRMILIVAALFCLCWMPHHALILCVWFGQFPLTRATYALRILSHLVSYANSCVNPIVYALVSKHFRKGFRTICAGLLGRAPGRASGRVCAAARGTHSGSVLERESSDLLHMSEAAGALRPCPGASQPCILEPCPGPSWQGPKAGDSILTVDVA

SMILES: O=C(O)C1Nc2c(C(F)(F)F)ccc(Cl)c2C2C=CCC12 (stereo not given)
- EC50 [1]: 110 µM (active)
- IC50 [2]: > 100 µM (not active)
- EC50 [3]: 61.5 µM (active)
- IC50 [4]: > 100 µM (not active)
- IC50 [5]: > 100 µM (not active)

SMILES: O=C(Nc1ccc(Br)nc1)c1cccc(F)c1
- EC50 [6]: 1.65 µM (active)

SMILES: O=C(Nc1cc(S(=O)(=O)Nc2ccc(Cl)cc2)ccc1N1CCCCC1)c1ccc(F)cc1
- EC50 [7]: 10.2 µM (active)
- EC50 (Streptococcus [8]): 150 µM (active)
- EC50 (Streptokinase A): 5.17 µM (active)
- EC50 [9]: 29.4 µM (active)
- EC50 [10]: 21 µM (active)
- EC50 (Streptococcus [11]): > 150 µM (not active)
- AC50 [12]: 4.98 µM (active)
- AC50 (INS1): 8.05 µM (active)

SMILES: Cc1cc(C)c2c(=O)n(CC(=O)NCCCN3CCOCC3)sc2n1
- IC50 [13]: 21.2 µM (not active)
- IC50 [14]: 10.8 µM (active)
- IC50 [15]: 46 µM (active)
- IC50 (Insulin-degrading enzyme): 7.16 µM (active)

SMILES: O=C(/C=C/Sc1nc[nH]n1)c1ccc(Cl)cc1
- CC50 (HeLa): > 3.67 µM (not active)
- EC50 (BJ [16]): 4.19 µM (active)
- IC50 (Galanin receptor type 2): 10.9 µM (not active)
- EC50 (BJ [17]): 6.44 µM (inconclusive)
- EC50 [18]: 1.99 µM (active)
- CC50 [19]: 25.4 µM (active)
- EC50 [20]: 3.28 µM (active)
- EC50 (BJ [21]): 12.3 µM (active)
- EC50 [22]: 5.81 µM (active)
- AC50 [23]: 9.76 µM (active)
- AC50 [24]: 31.2 µM (active)
- AC50 [25]: 14.4 µM (active)
